Experimental findings from patent US8497255B2, “Phosphonic acids as S1P receptor modulators” (Allergan, Inc., priority 2010, dated 2013) are described below.

This test addresses T1, human S1P1 receptor (Homo sapiens, UniProt P21453).
T1 construct: expressed in transfected cells; membranes used
Description: GTP γ35S binding assay for S1P1 activity. It is filed as biochemical. The following applies: activity potency, S1P1 receptor from GTP γ35S binding; membranes, 30 min at 25° C. How it is done: Compounds were synthesized and tested for S1P1 activity using the GTP γ^35S binding assay. These compounds may be assessed for their ability to activate or block activation of the human S1P1 receptor in cells stably expressing the S1P1 receptor.
GTP γ^35S binding was measured in the medium containing (mM) HEPES 25, pH 7.4, MgCl2 10, NaCl 100, dithitothreitol 0.5, digitonin 0.003%, 0.2 nM GTP γ^35S, and 5 μg membrane protein in a volume of 150 μl. Test compounds were included in the concentration range from 0.08 to 5,000 nM unless indicated otherwise. Membranes were incubated with 100 μM 5′-adenylylimmidodiphosphate for 30 min, and subsequently with 10 μM GDP for 10 min on ice. Drug solutions and membrane were mixed, and then reactions were initiated by adding GTP γ^35S and continued for 30 min at 25° C. Reaction mixtures were filtered over Whatman GF/B filters under vacuum, and washed three times with 3 mL of ice-cold buffer (HEPES 25, pH7.4, MgCl2 10 and NaCl 100). Filters were dried and mixed with scintillant, and counted for ^35S activity using a β-counter. Agonist-induced GTP γ^35S binding was obtained by subtracting that in the absence of agonist. Binding data were analyzed using a non-linear regression method. In case of antagonist assay, the reaction mixture contained 10 nM S1P in the presence of test antagonist at concentrations ranging from 0.08 to 5000 nM.
For orientation: GTPγS resists hydrolysis and so accumulates on activated G proteins.

T1 sequence (P21453 whole entry): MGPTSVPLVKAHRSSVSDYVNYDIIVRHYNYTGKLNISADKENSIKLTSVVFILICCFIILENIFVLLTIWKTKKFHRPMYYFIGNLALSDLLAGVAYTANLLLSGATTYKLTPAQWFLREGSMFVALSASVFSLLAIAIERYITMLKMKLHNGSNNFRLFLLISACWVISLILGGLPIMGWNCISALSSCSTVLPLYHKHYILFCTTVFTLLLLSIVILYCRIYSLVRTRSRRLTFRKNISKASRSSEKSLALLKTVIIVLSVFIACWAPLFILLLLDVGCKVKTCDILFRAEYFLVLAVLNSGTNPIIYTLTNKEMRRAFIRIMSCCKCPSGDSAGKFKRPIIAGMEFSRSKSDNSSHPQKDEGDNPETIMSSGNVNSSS

For `CC(C)Oc1ccc(-c2nc(-c3ccc(CNCCCP(=O)(O)O)cc3)no2)cc1C(F)(F)F` [Compound 1, {3-[(4-{5-[4-isopropoxy-3-(trifluoromethyl)phenyl]-1,2,4-oxadiazol-3-yl}benzyl)amino]propyl}phosphonic acid], the EC50 (usually the concentration giving half of the maximal effect) came to 3.14 nM. The result for `CC(C)Oc1ccc(-c2nc(-c3ccc(CNCCCP(=O)(O)O)cc3)no2)cc1Br` [Compound 2, [3-({4-[5-(3-bromo-4-isopropoxyphenyl)-1,2,4-oxadiazol-3-yl]benzyl}amino)propyl]phosphonic acid] reads 3.1 nM; that for `CC(C)Cc1ccc(-c2nc(-c3ccc(CNCCCP(=O)(O)O)cc3)no2)cc1` [Compound 3, (3-{4-[5-(4-Isobutyl-phenyl)-[1,2,4]oxadiazol-3-yl]-benzylamino}-propyl)-phosphonic acid], 1.78 nM.
